Reference: US20260137807A1, “COMPOSITIONS AND METHODS FOR DELIVERING A MACROMOLECULE TO A CELL” (AstraZeneca AB, priority 2022, published 2026)

Assays:
Type in all cases: cell-based
[1] = system: Luc705 pre-mRNA in Huh7 Luc705 cells; assay: RT-PCR of corrected luciferase mRNA; conditions: with SSO, Huh7, FIG. 9
Procedure: (§1) The percentage of corrected luciferase mRNA was quantified using a previously validated RT-PCR protocol. (Saher et al. (2019) Pharmaceutics. 11(12):666) Total RNA was extracted from HeLa Luc705 and Huh7 Luc705 cells using TRI Reagent (Sigma-Aldrich) according to the manufacturer's instructions.
(§2) For RT-PCR reactions using ONE STEP RT-PCR kit (QIAGEN), three nanograms of isolated RNA were utilized. The total reaction volume was 20 μL and the primer sequences used were:
(§3) The program for the RT-PCR was as follows: 55° C., 35 min, then 95° C., 15 min, for the reverse transcription step, directly followed by the PCR (94° C., 30 s, then 55° C., 30 s, then 72° C., 30 s) for 30 cycles and the final extension 72° C., 10 min. The PCR products were analyzed using a 1% agarose gel in 0.5× TAE buffer and visualized by SYBR Gold (Invitrogen, Molecular products) staining.
(§4) Versadoc imaging system with a cooled CCD camera (BioRad, Hercules, CA, USA) was used for the analysis of gels. Band intensities were analyzed with the Quantity One software (BioRad, Hercules, CA, USA). The percentage of correction was calculated using this equation (Band intensity of corrected RNA*100/(Band intensity of corrected RNA+Band intensity of uncorrected RNA).

[2] = system: Luc705 pre-mRNA in HeLa Luc705 cells; assay: RT-PCR of corrected luciferase mRNA; conditions: with SSO, FIG. 9
Procedure: as §1, §2, §3, §4

HeLa Luc705 cells = assay: Splice switching activity assay (Luc705 luciferase reporter), Example 4A
Description: (§5) HeLa Luc705 and Huh7 Luc705 cells were used to screen and characterize the SMC generated in Example 2 for their ability to increase levels of an SSO-induced splice variant by co-treatment of the cells with the SSO and SMC. The Luc705 reporter construct was used for quantitation of luciferase protein produced as a result of functional SSO delivery. (Kang et al. (1998) Biochemistry, 37(18):6235-6239; Rocha et al. (2016) Four Novel Splice-Switch Reporter Cell Lines: Distinct Impact of Oligonucleotide Chemistry and Delivery Vector on Biological Activity. Nucleic Acid Ther. 26(6):381). Briefly, a plasmid carrying the luciferase coding sequence interrupted by an insertion of intron 2 from β-globin pre-mRNA carrying a cryptic splice site was stably transfected into cells. Unless the aberrant slice site was masked by an antisense oligonucleotide, the pre-mRNA of luciferase was improperly processed.
(§6) HeLa Luc705 and Huh7 Luc705 cells were seeded in 96-well plates at 10,000 cells per well in growth media containing 1 μM Luc705-SSO and incubated to allow adherence and oligo internalization. After 24 hours, 10 μl of SMC diluted in Growth Media (DMEM+10% FBS) was added into each well. After 2 hours, media was removed from the wells and replaced with fresh growth media for 4 hours to allow for translation of the variant proteins. The media was then removed, and cells were lysed with 0.1% Triton-PBS.
(§7) To detect luciferase activity, 30 μL of cell lysate was transferred to white-walled 96-well plates. Luciferase intensity in each well was measured using a GloMax® 96 Microplate Luminometer machine (Promega) following auto-injection of 25 μL Luciferin substrate (Firefly Luciferase Assay System: Promega) per well. Photon measurements were acquired for 10 seconds, starting 2 seconds after injection.
(§8) To determine whether AZ4800 (Compound 2, FIG. 1B) and SSO must be present in the cell media simultaneously for Compound 2 to produce its synergistic effects, the treatment plan was modified from the UNC2383 treatment plan detailed by Wang et al. (2017) ACS Chem. Biol. 12(8):1999-2007 to include a 24 hour pre-treatment with SSO, followed by the addition of Compound 2 for two hours, followed by the removal of SSO and Compound 2, and finally a 4-hour protein translation period (FIG. 10).

Huh7 Luc705 cells = assay: as above
Description: as §5, §6, §7, §8

N2A_Luc705 cells = assay: Splice switching activity assay, 24 hr SMC treatment, Examples 4C/4D; conditions: 2.5 μM compound, 1 μM SSO, FIG. 27
Procedure: (§9) U2OS_Luc705 and N2A_Luc705 cells were seeded in 96-well plates at 10,000 cells per well in growth media with 1 μM Luc705-SSO. The various SMCs were diluted directly into prepared growth media. After 24 hr to allow adherence and SSO internalization, 10 μl of diluted SMC was added into each well at indicated concentrations. For a positive control, SSOs were complexed with Lipofectamine 2000 for 30 min at RT and cells treated with a final concentration of 200 nM. ON concentrations above 200 nM would require LF2000 to be used in excess of the cells' toxicity threshold. After 24 hr treatment, cells were lysed with 0.1% TritonX-100 (Sigma Aldrich, cat no. X100) in 1× PBS (Gibco, cat no. 10010023).
(§10) For the detection of luciferase activity, 30 μL of cell lysate was transferred to white-walled plates. The luciferase intensity in each well was immediately measured via luminometer following auto-injection of 25 μL Luciferin substrate as per the Promega Firefly Luciferase Assay System. The timing parameters of photon measurements were optimized for this procedure.
(§11) The various SMCs were diluted directly into prepared growth media. After 24 hr to allow adherence and SSO internalization, 10 μl of diluted SMC was added into each well at indicated concentrations. For a positive control, SSOs were complexed with Lipofectamine 2000 for 30 min at RT and cells treated with a final concentration of 200 nM. ON concentrations above 200 nM would require LF2000 to be used in excess of the cells' toxicity threshold. After 24 hr treatment, cells were lysed with 0.1% TritonX-100 (Sigma Aldrich, cat no. X100) in 1× PBS (Gibco, cat no. 10010023).

U2OS_Luc705 cells = assay: as above; conditions: 2.5 μM compound, 1 μM SSO, FIG. 27
Procedure: as §9, §10, §11

COc1nn(C2CCNCC2)cc1Nc1ncc(Cl)c(-n2ccc3c(C#N)cccc32)n1 [Compound 2]
levels of splice-switching (functional mRNA) [1]: greater levels of splice-switching than transfection with SSO using Lipofectamine 2000
levels of splice-switching (functional mRNA) [2]: greater levels of splice-switching than transfection with SSO using Lipofectamine 2000
increase in SSO activity (HeLa Luc705 cells; 1 μM SSO, 10, 5 or 1 μM compound for 2 hours, FIG. 2A): substantially higher increase in SSO activity than UNC2383
increase in functional SSO activity (HeLa Luc705 cells; 5 μM compound, 1 μM SSO or 100 nM SSO, FIG. 2B): increase in activity
SSO activity, preload only (HeLa Luc705 cells; SSO only pre-treated, removed when compound added, FIG. 11A): no activity was seen
increase in SSO activity with lengthened pre-treatment (HeLa Luc705 cells; SSO pre-treatment 48 hours instead of 24, FIG. 12A): more pronounced
increase in SSO activity (HeLa Luc705 cells; co-treatment up to 5 μM, plateauing after 2 hours, FIG. 11C): 100 fold
SSO activity without the pre-treating step (HeLa Luc705 cells; no pre-load, FIG. 13A): significant activity was observed
increase in SSO activity with lengthened pre-treatment (Huh7 Luc705 cells; SSO pre-treatment 48 hours instead of 24, FIG. 12B): more pronounced
SSO activity without the pre-treating step (Huh7 Luc705 cells; no pre-load, FIG. 13B): significant activity was observed

COc1nn(C2CCNCC2)cc1Nc1ncc(F)c(-n2ccc3c(C#N)cccc32)n1 [Compound 4]
activity of the oligo as compared to oligo only (N2A_Luc705 cells): enhanced activity of the oligo as compared to oligo only
activity of the oligo as compared to oligo only (U2OS_Luc705 cells): enhanced activity of the oligo as compared to oligo only
